Measured values as given in patent US5639787A, “Therapeutic method for the treatment of cancer” (priority 1995, dated 1997).
Like-named read-outs stand apart in the source and are kept apart here.

Key:
[1] = clinical; settings: human, in vivo
From the text: It is known that ascorbic acid and salts thereof have shown a cytotoxic effect when administered in vitro to tumor cell lines. […] The cytotoxic effect of ascorbic acid is understood to relate to the increased production of intracellular hydrogen peroxide, which is more toxic to tumor cells due to the lower levels of catalase typically present in tumor cells as compared to normal cells. Although some cancers may respond to lower levels, the concentration level of ascorbic acid required for in vitro cytotoxic effectiveness are normally in the range of 5-40 mg/dl with concentrations of 30-40 mg/dl being typical. […] Moreover, since ascorbic acid is readily cleared from the body, the tumor cytotoxic effect, if any, achieved by conventionally administered doses of ascorbic acid would be transitory at best.
The method of the present invention comprises the treatment of cancer by administering sufficient amounts of ascorbic acid to raise the concentration of ascorbic acid in the patient's plasma above a level that is cytotoxic to the cancer tumor cells. The treatment is based on the fact that tumor cells contain between 10 and 100 fold less of the enzyme catalase than normal cells. Catalase converts toxic hydrogen peroxide to non-toxic oxygen and water. This biochemical difference between normal and tumor cells provides a window of opportunity for selective toxicity. It has been known for some time that ascorbate is capable of inducing the intracellular production of hydrogen peroxide. The basis of the present invention is the discovery, through experimentation, that concentrations of ascorbate capable of inducing toxic reactions in tumor cells were achievable in vivo through intravenous infusion of large amounts of ascorbic acid in solution. […] For this reason, it is desirable to exceed the levels required for in vitro cytotoxicity in tumor cells by a wide margin. It is also advantageous to maintain the cytotoxic level of ascorbic acid in the patient's plasma for as long a period of time as is reasonably possible. To achieve such results in patients, the treatment has required intravenous administration of as much as 115 grams of ascorbic acid infused over several hours to achieve an apparently effective level of ascorbic acid. […] Continuous administration of a solution of ascorbic acid maintains the plasma levels despite the bodies ability to clear the ascorbate from the patient's system. Continuation of the treatment over multiple infusions is believed to be desirable. […] The plasma levels of ascorbic acid in patients are routinely and repeatedly monitored throughout the treatment and the amount of ascorbic acid administered is adjusted according to the individual patient's tolerance and the target level of ascorbic acid. Target levels of ascorbic acid are set according to the type of cancer afflicting the patient using in vitro studies of cytotoxicity in similar cell lines. More accurate target levels can be achieved by in vitro experimentation of malignant cells taken from the patient if such are available. A further development of the treatment of the present invention involves the direct testing of the cytotoxic effectiveness of the patient's serum. Serum is drawn during the infusion and either the patient malignant cells, if available, or similar cell lines are exposed to the patient's serum with the effects observed. This direct testing provides information that is used to adjust the amount of ascorbic acid administered to ensure that effective plasma levels have been achieved.
Since, as stated above, there is not a direct translation of in vitro to in vivo results, the level of ascorbic acid within the patient's plasma must be raised to exceed the levels required for in vitro cytotoxicity in tumor cells and maintained at that level for a significant period of time. The patient undergoes an intravenous infusion of ascorbic acid in a medically acceptable aqueous solution such as Ringer's lactate. As an example, Mr. […]

[2] = safety and tolerance of ascorbic acid administration; type: in vivo, human
From the text: G.; O'Fallon, J. R.; et al. Failure of High Dose Vitamin C (ascorbic acid) to Benefit Patients With Advanced Cancer: A Control Trial. N Engl. J. Med., 1979; 301:687-690 and Mortel, C. G.; Fleming, T. R.; Creagan, E. T.; , et al. High Dose of Vitamin C Versus Placebo In The Treatment of Patients With Advanced Cancer Who Have Had No Prior Chemotherapy. N Engl. J. Med., 1985; 312:137-141. Heretofore the highest dosage understood to be safely administered to a human was approximately 10-15 grams. […] The positive results are believed to have been achieved by means of increased stromal resistance to the invasiveness of the malignancies studied, although the lack of monitoring of the level of ascorbic acid present in the plasma prevents an accurate assessment.
Therefore, the in vitro results are not readily duplicated in vivo and the concentrations of ascorbic acid that are effectively toxic in vitro are not as effective, nor as easy to achieve, in test subjects.
The method of the present invention comprises the treatment of cancer by administering sufficient amounts of ascorbic acid to raise the concentration of ascorbic acid in the patient's plasma above a level that is cytotoxic to the cancer tumor cells. The treatment is based on the fact that tumor cells contain between 10 and 100 fold less of the enzyme catalase than normal cells. Catalase converts toxic hydrogen peroxide to non-toxic oxygen and water. This biochemical difference between normal and tumor cells provides a window of opportunity for selective toxicity. It has been known for some time that ascorbate is capable of inducing the intracellular production of hydrogen peroxide. […] The plasma levels of ascorbic acid in patients are routinely and repeatedly monitored throughout the treatment and the amount of ascorbic acid administered is adjusted according to the individual patient's tolerance and the target level of ascorbic acid. […]

[3] = test system: metastatic carcinoma of the head of the pancreas; assay: A person, intravenous ascorbate, tumor on C-T scan; type: in vivo, human; settings: six months after diagnosis
Description: Since, as stated above, there is not a direct translation of in vitro to in vivo results, the level of ascorbic acid within the patient's plasma must be raised to exceed the levels required for in vitro cytotoxicity in tumor cells and maintained at that level for a significant period of time. The patient undergoes an intravenous infusion of ascorbic acid in a medically acceptable aqueous solution such as Ringer's lactate. As an example, whose case is described below was administered 115 grams of ascorbic acid in 1000 cc Ringer's lactate, infused over 8 hours. The infusions are continued until resolution of the patient's tumors have been evidenced. Normal diagnosis and classification of the patient's cancer can be used in conjunction with experimental results to predict the target levels of ascorbic acid for an effective treatment. More accurate target levels can be achieved by experimentation on cultured malignant cells taken from the patient if such are available. […] The plasma levels of ascorbic acid in patients are routinely and repeatedly monitored throughout the treatment and the amount of ascorbic acid administered is adjusted according to the individuals tolerance and the target level of ascorbic acid. […]

[4] = test system: metastatic fibrous histiocytoma; assay: A person, intravenous ascorbate, chest x-ray; type: in vivo, human
From the text: Two masses were in the left lung and one mass was in the right lung. All masses measured approximately 2 cm. in diameter.

[5] = test system: patient's tumor cells (metastatic colon carcinoma); assay: cells; type: cell-based; settings: Homo sapiens, Colon carcinoma cell, read-out: toxic to percent of the patient's tumor cells
Description: (§1) 3 Mr. […] Cancer was discovered during exploratory surgery. Multiple metastases were found on the omentum, transverse and sigmoid colon, and the peritoneum. Biopsy samples from these metastases were obtained during surgery and most of the tumor mass was not removed. A cell culture line was established from the tissue biopsies, and the patient tumor cells were tested to determine the sensitivity of the tumor cells to ascorbic acid. […] A target level of plasma concentration of ascorbic acid was selected at three times the level found to be toxic to the patient's tumor cells. Intravenous ascorbate was begun and the infusion quantity and rate required to achieve and maintain the targeted plasma ascorbic acid concentration of 90 mg/dl was determined. Twenty hour infusions of ascorbate were given three times per week. After four months of therapy, a surgical ileostomy was performed due to chronic diarrhea.

[6] = test system: metastatic colon carcinoma; assay: A person, intravenous ascorbate, metastases observed during surgery; type: in vivo, human; settings: after four months of therapy
Description: as §1

[7] = test system: metastatic ovarian cancer; assay: A person, intravenous ascorbate, cancer antigen CA-125 level; type: in vivo, human; settings: throughout intravenous ascorbate therapy, seven months
Description: 4 a person is a person with metastatic ovarian cancer. After six months of standard chemotherapy, a second exploratory surgery was performed, at which time metastases throughout the abdominal cavity were found. The patient was started on intravenous ascorbate infusions at the quantity and rate of flow required to maintain a plasma concentration of 80 mg/dl.

[8] = clinical; settings: human, in vivo, iv
Description: (§2) 5 a person was a with metastatic prostate cancer. A baseline blood sample was drawn from the patient and the serum was separated. An intravenous infusion of 105 grams of ascorbate was performed over 5 hours. At the and of the 5 hours another blood sample was taken and again the serum was separated. The pre-infusion serum sample was assayed and found to contain an ascorbic acid concentration of 3.4 mg/dl and the post-infusion serum samples were assayed and found to contain an ascorbic acid concentration of 165 mg/dl. The cytotoxic effectiveness of both serum samples was tested against a line of human prostate tumor cells called "PC-3"from American Type Culture Collection. The PC-3 cells were plated, 3,000 cells per well in plastic 96 well tissue culture plates 24 hours before the blood was taken from the patient above. 100% and 50% (diluted with complete culture medium, DMEM) serum solutions from both samples were added to 16 wells each of the PC-3 cells which had been plated earlier. After a five day incubation, the number of surviving tumor cells in the wells containing the 100% and 50% solutions of the post-infusion serum sample was compared to the number of surviving tumor cells in the wells containing the 100% and 50% solutions of the pre-infusion serum sample and the percent survival was calculated as follows: […]

[9] = test system: PC-3 human prostate tumor cells; assay: cells; type: cell-based; settings: PC-3, 120 h
Description: as §2

[10] = humans; cited from earlier work
[11] = test system: cancer; settings: high doses of ascorbic acid; two published trials; cited from earlier work
[12] = test system: tumor cell lines; settings: cited from earlier work
[13] = cited from earlier work
[14] = test system: intracellular adhesion molecule-1 (ICAM-1); settings: cited from earlier work

O=C1O[C@H]([C@@H](O)CO)C(O)=C1O [ascorbic acid]
concentration at 1 h ([1]; iv): 1580 µg/mL | concentration at 5 h ([1]; iv): 1850 µg/mL | plasma concentration maintained ([1]; iv): 80 mg/dL | plasma level of ascorbate achieved ([1]; iv): exceeding 150 mg/dl | plasma levels of ascorbate achieved ([1]; iv): 110 mg/dL | targeted plasma ascorbic acid concentration achieved and maintained ([1]; iv): 90 mg/dL | levels of ascorbic acid between infusions ([1]; po): found to avoid abnormally low levels of ascorbic acid between infusions | detrimental side effects ([2]; A person, 39 8 hour infusions, 57.5 to 115 grams per infusion, 13 weeks): without reported detrimental side effects | depletion of minerals and other substances ([2]; ascorbic acid infusion process): depletion of certain minerals and other substances | detrimental side effects ([2]; intravenous infusion of large amounts (as much as 115 grams over several hours)): without reported detrimental side effects | tumor seen on C-T scan [3]: no detectable tumor | right lung mass, chest x-ray ([4]; after seven months of therapy): disappeared | diameter of regressed left lung mass ([4]; after seven months, initially approximately 2 cm in diameter): about 1 cm | left lung mass which had regressed ([4]; after twelve months of therapy): completely resolved | size of the remaining left lung metastasis ([4]; after twelve months of therapy): no change | left lung mass, chest x-ray ([4]; one of the left lung masses, after seven months of therapy): decreased in size (to about 1 cm) with decreased radio-opacity | cytotoxicity at 300 µg/mL [5]: 100% | multiple metastases, size and consistency [6]: decreased significantly in size and have a flaccid consistency | level of cancer antigen CA-125 [7]: returned to normal and remained within normal limits | ascorbic acid concentration in serum [8]: 3.4 mg/dL | concentration at 5 h [8]: 1650 µg/mL | viability at 1650 µg/mL ([9]; read-out: percent tumor cell survival, post-infusion serum (165 mg/dl ascorbic acid), 50% serum, five days): 15% | viability at 1650 µg/mL ([9]; read-out: percent tumor cell survival, post-infusion serum (165 mg/dl ascorbic acid), 100% serum, five days): 19% | viability at 34 µg/mL ([9]; read-out: percent tumor cell survival, preinfusion serum (3.4 mg/dl ascorbic acid), 50% serum, five days, reference): 100% | viability at 34 µg/mL ([9]; read-out: percent tumor cell survival, preinfusion serum (3.4 mg/dl ascorbic acid), 100% serum, five days, reference): 100% | normal plasma levels of ascorbic acid [10]: 0.39 to 1.13 mg/dL | benefit to patients with advanced cancer [11]: failure of high doses of ascorbic acid to have the desired effect in the treatment of cancer | effect of exposure to plasma on cytotoxic effect ([12]; exposure to plasma): diminished, to varying degrees | concentration level of ascorbic acid required for in vitro cytotoxic effectiveness ([12]; normally in the range): 5 to 40 mg/dL | concentration level of ascorbic acid required for in vitro cytotoxic effectiveness, typical ([12]; typical concentrations): 30 to 40 mg/dL | highest dosage understood to be safely administered to a human ([13]; human, before the invention): 10-15 grams | tumor necrosis and hemorrhage ([13]; rare cases of extreme tumor sensitivity to ascorbic acid, fatal): rare instances of wide-spread tumor necrosis and hemorrhage

hyaluronic acid
binding by ICAM-1 [14]: preferentially bound
